Where a name gives a salt, the structure may show the parent alone.
Experiments:
PDE10A (human) = biological target: T1, PDE10A (human) (Homo sapiens, UniProt Q9Y233); test: Measurement of PDE activity (HTRF cAMP kit), human PDE10A; format: biochemical; settings: PDE enzymatic reaction, substrate 20 nM for PDE10, 60 minutes at 29 C
T1 construct: purchased BPS Bioscience
How it was run: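 HTRF detection of cAMP left after hydrolysis, expressed as percent of uninhibited control to derive IC50. Reaction: serially diluted inhibitor mixed with recombinant enzyme, started with 20 nM cAMP, 60 min at 29 °C in Tris-HCl pH 7.5 buffer containing MgCl2 and BSA.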

[1] = Determination of the microsomal half-life, rat liver microsomes; settings: rat, liver microsomes, pH 7.4
[2] = Determination of the microsomal half-life, human liver microsomes; settings: human, liver microsomes, pH 7.4

T1 sequence (Q9Y233 whole entry): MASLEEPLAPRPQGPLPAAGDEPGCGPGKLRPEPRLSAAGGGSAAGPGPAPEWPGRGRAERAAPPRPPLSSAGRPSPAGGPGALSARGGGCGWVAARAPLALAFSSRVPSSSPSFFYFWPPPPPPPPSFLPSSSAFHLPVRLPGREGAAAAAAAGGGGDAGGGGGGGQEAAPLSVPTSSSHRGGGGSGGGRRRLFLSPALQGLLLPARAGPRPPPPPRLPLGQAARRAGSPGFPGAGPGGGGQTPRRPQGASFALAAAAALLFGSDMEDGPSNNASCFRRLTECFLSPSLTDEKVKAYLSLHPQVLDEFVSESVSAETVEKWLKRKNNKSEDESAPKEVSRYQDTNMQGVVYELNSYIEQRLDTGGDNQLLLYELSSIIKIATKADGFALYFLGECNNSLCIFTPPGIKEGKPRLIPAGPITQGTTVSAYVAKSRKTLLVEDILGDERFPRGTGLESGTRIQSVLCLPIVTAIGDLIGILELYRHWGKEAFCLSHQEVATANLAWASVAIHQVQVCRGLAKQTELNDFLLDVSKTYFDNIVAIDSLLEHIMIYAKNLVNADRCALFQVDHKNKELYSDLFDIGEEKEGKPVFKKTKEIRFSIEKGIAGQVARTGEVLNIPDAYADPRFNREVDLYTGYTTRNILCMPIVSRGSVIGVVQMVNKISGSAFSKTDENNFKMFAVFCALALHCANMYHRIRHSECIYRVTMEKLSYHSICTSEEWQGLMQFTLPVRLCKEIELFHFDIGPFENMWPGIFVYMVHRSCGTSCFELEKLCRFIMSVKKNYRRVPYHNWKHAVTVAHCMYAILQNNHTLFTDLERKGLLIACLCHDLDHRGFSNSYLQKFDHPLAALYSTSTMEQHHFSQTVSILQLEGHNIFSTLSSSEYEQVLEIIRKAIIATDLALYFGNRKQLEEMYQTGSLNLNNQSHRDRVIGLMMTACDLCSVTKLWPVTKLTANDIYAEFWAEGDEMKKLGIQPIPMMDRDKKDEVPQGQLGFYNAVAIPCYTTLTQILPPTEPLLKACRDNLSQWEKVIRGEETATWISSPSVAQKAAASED

Row | IC50 (PDE10A (human)) | microsomal CLint at 0.5 μM [1] | microsomal CLint at 0.5 μM [2] | SMILES
1 | 100 to 200 nM | 100 to 220 µL/min/mg | < 100 µL/min/mg | O=C1c2cccc(-c3ccnnc3)c2CN1CCc1ccc2ccccc2n1 [Example 353, 4-Pyridazin-4-yl-2-(2-quinolin-2-yl-ethyl)-2,3-dihydro-isoindol-1-one]
2 | < 100 nM | 100 to 220 µL/min/mg | > 220 µL/min/mg | Cn1c(CCN2Cc3cccc(-c4ccncc4)c3C2=O)nc2ccccc21 [Example 195, 2-[2-(1-Methyl-1H-benzoimidazol-2-yl)-ethyl]-7-pyridin-4-yl-2,3-dihydro-isoindol-1-one]
3 | < 100 nM | 100 to 220 µL/min/mg | 100 to 220 µL/min/mg | [2H]C1([2H])OC([2H])([2H])C([2H])([2H])N(c2ccnc3c2C(=O)N(CCc2ccc4ccccc4n2)C3)C1([2H])[2H] [compound 485, 4-(2,2,3,3,5,5,6,6-Octadeuteriomorpholin-4-yl)-6-[2-(2-quinolyl)ethyl]-7H-pyrrolo[3,4-b]pyridin-5-one]
4 | < 100 nM | 100 to 220 µL/min/mg | < 100 µL/min/mg | O=C1c2c(cccc2-c2ccc3[nH]c(=O)[nH]c3c2)CN1CCc1ccc2ccccc2n1 [Example 9, 5-[3-oxo-2-(2-quinolin-2-yl-ethyl)-2,3-dihydro-1H-isoindol-4-yl]-1,3-dihydro-benzoimidazol-2-one trifluoroacetate]
5 | < 100 nM | < 100 µL/min/mg | 100 to 220 µL/min/mg | Cn1c(CCN2Cc3cccc(N4CCS(=O)(=O)CC4)c3C2=O)nc2ccccc21 [Example 184, 7-(1,1-Dioxothiomorpholin-4-yl)-2-[2-(1-methyl-1H-benzoimidazol-2-yl)-ethyl]-2,3-dihydro-isoindol-1-one trifluoroacetate]
6 | 100 to 200 nM | < 100 µL/min/mg | < 100 µL/min/mg | NCc1ccc(-c2cccc3c2C(=O)N(CCc2ccc4ccccc4n2)C3)cc1 [Example 193, 7-(4-Aminomethyl-phenyl)-2-(2-quinolin-2-yl-ethyl)-2,3-dihydro-isoindol-1-one]
7 | 100 to 200 nM | > 220 µL/min/mg | 100 to 220 µL/min/mg | Cn1ccc(-c2ccnc3c2C(=O)N(CCc2ccc4ccccc4n2)C3)c1 [Example 337, 4-(1-Methyl-1H-pyrrol-3-yl)-6-(2-quinolin-2-yl-ethyl)-6,7-dihydro-pyrrolo[3,4-b]pyridin-5-one]
8 | < 100 nM | < 100 µL/min/mg | < 100 µL/min/mg | O=C1c2c(-c3cncnc3)cc[n+]([O-])c2CN1CCc1ccc2ccccc2n1 [Example 296, 1-Oxy-4-pyrimidin-5-yl-6-(2-quinolin-2-yl-ethyl)-6,7-dihydro-pyrrolo[3,4-b]pyridin-5-one]
9 | 100 to 200 nM | 100 to 220 µL/min/mg | 100 to 220 µL/min/mg | O=C1c2c(cccc2N2CCOCC2)CN1CCc1ccc2sccc2n1 [Example 556, 7-Morpholino-2-(2-(thieno[3,2-b]pyridin-5-yl)ethyl)isoindolin-1-one]
10 | < 100 nM | < 100 µL/min/mg | < 100 µL/min/mg | COc1ccnc2c1C(=O)N(CCc1ccc3ccccc3n1)C2 [compound 528, 4-Methoxy-6-(2-quinolin-2-yl-ethyl)-6,7-dihydro-pyrrolo[3,4-b]pyridin-5-one]
11 | < 100 nM | 100 to 220 µL/min/mg | < 100 µL/min/mg | O=C1c2c(N3CCC(CF)C3)ccnc2CN1CCc1cn2ccccc2n1 (stereo not drawn) [compound 384, 4-[3-(Fluoromethyl)pyrrolidin-1-yl]-6-(2-imidazo[1,2-a]pyridin-2-ylethyl)-7H-pyrrolo[3,4-b]pyridin-5-one]
12 | < 100 nM | < 100 µL/min/mg | < 100 µL/min/mg | O=C1c2c(cccc2-c2ccncc2)CN1CCc1nc2ccccc2s1 [Example 223, 2-(2-Benzothiazol-2-yl-ethyl)-7-pyridin-4-yl-2,3-dihydro-isoindol-1-one trifluoroacetate]
13 | < 100 nM | < 100 µL/min/mg | < 100 µL/min/mg | Cn1nccc1-c1ccc(F)c2c1C(=O)N(CCc1cn3ccccc3n1)C2 [Example 382, 4-Fluoro-2-(2-imidazo[1,2-a]pyridin-2-yl-ethyl)-7-(2-methyl-2H-pyrazol-3-yl)-2,3-dihydro-isoindol-1-one]
14 | < 100 nM | < 100 µL/min/mg | < 100 µL/min/mg | O=C1c2c(-c3cccnc3)ccnc2CN1CCc1nc2ccccc2s1 [compound 430, 6-[2-(1,3-Benzothiazol-2-yl)ethyl]-4-(3-pyridyl)-7H-pyrrolo[3,4-b]pyridin-5-one trifluoroacetate]
15 | 100 to 200 nM | < 100 µL/min/mg | < 100 µL/min/mg | O=C1c2nccc(-c3cccnc3)c2CN1CCc1ccc2ccccc2n1 [compound 463, 4-Pyridin-3-yl-6-(2-quinolin-2-yl-ethyl)-5,6-dihydro-pyrrolo[3,4-b]pyridin-7-one trifluoroacetate]
16 | < 100 nM | < 100 µL/min/mg | 100 to 220 µL/min/mg | O=C1c2c(-c3cccnc3)ccc(F)c2CN1CCc1cn2ccccc2n1 [Example 378, 4-Fluoro-2-(2-imidazo[1,2-a]pyridin-2-yl-ethyl)-7-pyridin-3-yl-2,3-dihydro-isoindol-1-one]
17 | < 100 nM | < 100 µL/min/mg | < 100 µL/min/mg | COc1ccc(-c2cncnc2)c2c1CN(CCc1cn3ccccc3n1)C2=O [Example 217, 2-(2-Imidazo[1,2-a]pyridin-2-yl-ethyl)-4-methoxy-7-pyrimidin-5-yl-2,3-dihydro-isoindol-1-one trifluoroacetate]
18 | < 100 nM | 100 to 220 µL/min/mg | < 100 µL/min/mg | COc1ccc(-c2ccnn2C)c2c1C(=O)N(CCc1nc3ccccc3s1)C2 [compound 399, 2-[2-(1,3-Benzothiazol-2-yl)ethyl]-7-methoxy-4-(2-methylpyrazol-3-yl)isoindolin-1-one]
19 | < 100 nM | 100 to 220 µL/min/mg | < 100 µL/min/mg | O=C1c2c(-c3ccoc3)ccnc2CN1CCc1nc2ccccc2s1 [compound 422, 6-[2-(1,3-Benzothiazol-2-yl)ethyl]-4-(3-furyl)-7H-pyrrolo[3,4-b]pyridin-5-one trifluoroacetate]
20 | < 100 nM | < 100 µL/min/mg | < 100 µL/min/mg | CN(C)CCOc1ccc(-c2ccncc2)c2c1CN(CCc1ccc3ccccc3n1)C2=O [compound 529, 4-(2-Dimethylamino-ethoxy)-7-pyridin-4-yl-2-(2-quinolin-2-yl-ethyl)-2,3-dihydro-isoindol-1-one]
21 | < 100 nM | < 100 µL/min/mg | < 100 µL/min/mg | O=C1c2c(cccc2N2CCOCC2)CN1CCc1cn2ccccc2n1 [Example 310, 2-(2-Imidazo[1,2-a]pyridin-2-yl-ethyl)-7-morpholin-4-yl-2,3-dihydro-isoindol-1-one]
22 | 200 to 500 nM | < 100 µL/min/mg | < 100 µL/min/mg | Cc1ccnc(CCN2Cc3nccc(N4CCOCC4)c3C2=O)c1 [compound 521, 6-[2-(4-Methyl-2-pyridyl)ethyl]-4-morpholino-7H-pyrrolo[3,4-b]pyridin-5-one]

Reference: patent US9938269B2, “Inhibitor compounds of phosphodiesterase type 10A” (ABBVIE INC., priority 2011, dated 2018)
